Results from the NIST ThermoML archive (doi:10.1021/acs.jced.9b00308).
Numbers after ± are expanded uncertainties.

What was measured:
[1] = Molar enthalpy of transition or fusion; conditions: Crystal 1; DSC
[2] = Crystal 1; DSC

O=C1Cc2ccccc2N1 [indolin-2-one]
Molar enthalpy of transition or fusion [1]: 3.94 ± 0.717 kcal/mol
Triple point temperature [2]: 393.93 ± 4.1 K
